# Where “and” joins values, the source holds several entries; their conditions need not be identical. Identical values can stand only once. Like-named read-outs stand apart in the source and are kept apart here.
# Columns and labels:
# Format in all cases: cell-based
# MCF-7 (breast cancer) = experiment: Sulphorhodamine B cytotoxicity test, MCF-7 line; conditions: for IC50: Homo sapiens, MCF7, 72 h incubation, SRB
# Description: (§1) Cytotoxic activity tests were performed using the following cancer cell lines: MCF-7 (breast cancer), HeLa (cervical cancer) A549 (pulmonary cancer) and KB (nasopharynx cancer) obtained from ECACC (European Collection of Cell Cultures). Cytotoxicity tests were carried out using a standard procedure with sulphorhodamine B. They involved incubation of the cancer cell lines in the logarithmic growth phase for 72 hours with the compound tested and, subsequently, spectrophotometric determination of the degree of cell growth inhibition using adsorption of a dye (sulphorhodamine B) which binds cellular proteins. The determination was carried out according to a procedure reported in: Vichai, V., Kirtikara, K. Nature Protocols, 2006, 1, 1112. […] Solutions of the test compounds were prepared in DMSO in the following concentration range: 0.05; 0.1; 0.5; 1; 5; 10; 50; 100 μM. The cells of the lines tested were treated with the solutions of the test compounds in a laminar-flow chamber which ensured sterile working conditions according to the following procedure: the first three wells were used as a control: they contained 20 μL of DMSO only; successive solutions of the test compound were added to subsequent wells (20 μL), starting with the lowest concentration (three wells for each concentration level). Subsequently, the plates were placed in an incubator for 72 hours. After the end of incubation, the adhered cells were fixed by adding 500 μL of cold (4° C.) 50% trichloroacetic acid (TCA) and incubated at 4° C. for 1 hour. Subsequently, each well was rinsed with sterile water and dried. The operation was repeated five times. The fixed cells were stained for 30 minutes by adding 500 μL of 0.4% of a dye solution (sulphorhodamine B) dissolved in 1% acetic acid. […] Subsequently, the plates were dried in air for approx. 5 minutes. Any unbound dye was dissolved by adding 1500 μL of […] Tris-base buffer (trishydroxymethylaminomethane) to each well and shaken using an orbital shaker for 5 minutes. […] Depending on the type of the cell line, the following growth media were used: • the MCF-7 line was grown in Dulbecco's Modified Eagle's Medium (DME) from Sigma (cat. no. […] R8758).
# HeLa (cervical cancer) = experiment: Sulphorhodamine B cytotoxicity test, HeLa line; conditions: for IC50: Homo sapiens, HeLa
# Description: as §1
# A549 (lung cancer) = experiment: Sulphorhodamine B cytotoxicity test, A549 line; conditions: for IC50: Homo sapiens
# Description: as §1
# KB (nasopharynx cancer) = experiment: Sulphorhodamine B cytotoxicity test, KB line; conditions: for IC50: average of three determinations, read-out: Cytotoxic activity, IC50, KB (nasopharynx cancer)
# Description: as §1
# [1] = test system: cancer cell lines of breast cancer, cervical cancer, lung cancer and nasopharynx cancer; experiment: Sulphorhodamine B cytotoxicity test, cancer cell lines overall (line not specified)
# Description: Cytotoxic activity tests were performed using the following cancer cell lines: MCF-7 (breast cancer), HeLa (cervical cancer) A549 (pulmonary cancer) and KB (nasopharynx cancer) obtained from ECACC (European Collection of Cell Cultures).
# Cytotoxicity tests were carried out using a standard procedure with sulphorhodamine B. They involved incubation of the cancer cell lines in the logarithmic growth phase for 72 hours with the compound tested and, subsequently, spectrophotometric determination of the degree of cell growth inhibition using adsorption of a dye (sulphorhodamine B) which binds cellular proteins. The determination was carried out according to a procedure reported in: Vichai, V., Kirtikara, K. Nature Protocols, 2006, 1, 1112.
# Cancerous cells of the cell line tested in the logarithmic growth phase were seeded onto 24-well plates in a quantity of 20,000 cells/2 mL of the growth medium per well and, subsequently, incubated in an incubator at 37° C., in the 5% CO2 atmosphere for 24 hours. […]
# After the end of incubation, the adhered cells were fixed by adding 500 μL of cold (4° C.) 50% trichloroacetic acid (TCA) and incubated at 4° C. for 1 hour. […] Subsequently, 200 μL of solution from each well was transferred to each of two wells on a new 96-well plate and absorption of the solutions was determined spectrophotometrically at a wavelength of 490-530 nm using a plate reader. […]
# [2] = average of three determinations, read-out: Cytotoxic activity, IC50, MCF-7 line (breast cancer)
# [3] = 72 h incubation, SRB, average of three determinations, read-out: Cytotoxic activity, IC50, HeLa (cervical cancer)
# [4] = A549, 72 h incubation, SRB, average of three determinations, read-out: Cytotoxic activity, IC50, A549 (lung cancer)
smiles,measurement,setting,value
O=c1[nH]c(=O)n([C@H]2C[C@H](O)[C@@H](CO)O2)cc1F [5-fluoro-2′-deoxyuridine],IC50,MCF-7 (breast cancer); [2],2.81 µg/mL and 11.4 µM
same,IC50,HeLa (cervical cancer); [3],3.2 µg/mL and 13 µM
same,IC50,A549 (lung cancer); [4],3.3 µg/mL and 13.4 µM
same,IC50,"KB (nasopharynx cancer); 72 h incubation, SRB",3.37 µg/mL and 13.7 µM
O=c1[nH]cc(F)c(=O)[nH]1 [5-fluorouracil],IC50,MCF-7 (breast cancer); [2],2.37 µg/mL and 18.2 µM
same,IC50,HeLa (cervical cancer); [3],2.73 µg/mL and 21 µM
same,IC50,A549 (lung cancer); [4],2.78 µg/mL and 21.4 µM
same,IC50,"KB (nasopharynx cancer); 72 h incubation, SRB",2.86 µg/mL and 22 µM
"C#CCO[C@@H](c1ccnc2ccccc12)[C@H]1C[C@@H]2CCN1C[C@@H]2C=C [PCN, 9-O-propargylcinchonine]",times as cytotoxic as 5FU,"MCF-7 (breast cancer); MCF-7 line, relative to 5FU",more than two times
same,times as active as 5 FdU,"MCF-7 (breast cancer); MCF-7 line, relative to 5 FdU",1.3 times
same,times as cytotoxic as 5FU,"HeLa (cervical cancer); HeLa (cervical cancer), relative to 5FU",two times
same,times as cytotoxic as 5 FdU,"HeLa (cervical cancer); HeLa (cervical cancer), relative to 5 FdU",1.2 times
same,times as cytotoxic as 5FU,"A549 (lung cancer); A549 (pulmonary cancer), relative to 5FU",more than 1.8 times
same,cytotoxicity compared with 5 FdU,"A549 (lung cancer); A549 (pulmonary cancer), relative to 5 FdU",slightly more cytotoxic
same,"Cytotoxic activity class, KB (nasopharynx cancer)","KB (nasopharynx cancer); 72 h incubation, SRB",(A) (IC50<4 μg/mL are generally assumed as active (abbreviated as A))
same,times as high activity compared to 5FU,"KB (nasopharynx cancer); KB (nasopharynx cancer), relative to 5FU",2.3 times
same,times as high activity compared to 5 FdU,"KB (nasopharynx cancer); KB (nasopharynx cancer), relative to 5 FdU",1.4 times
same,in vitro cytotoxicity against cancer cell lines,[1],within the range of high activity
C=C[C@H]1C[N@@]2CC[C@H]1C[C@@H]2[C@@H](O)c1ccnc2ccccc12 [cinchonine],IC50,"MCF-7 (breast cancer); read-out: Cytotoxic activity class, MCF-7 line (breast cancer)",4 to 30 µg/mL
same,IC50,"HeLa (cervical cancer); 72 h, read-out: Cytotoxic activity class, HeLa (cervical cancer)",4 to 30 µg/mL
same,IC50,"A549 (lung cancer); A549, 72 h, read-out: Cytotoxic activity class, A549 (lung cancer)",4 to 30 µg/mL
